The values that follow come from US10358469B2, “Methods and pharmaceutical compositions for the treatment of cancer” (INSERM (INSTITUT NATIONAL DE LA SANTÉ ET DE LA RECHERCHE …, priority 2014, dated 2019).

In series [1] the test system is U2OS cells. The series is described as follows: Matrigel invasion assay, U2OS cells. Particulars: 7.5 μM, toward 10% FBS, 48 h, FIG. 10B. It is filed as cell-based. As to the method: (§1) FIG. 10: Antp-AAC-11-LZ (377-399) peptide inhibits cell migration and invasion. (A) U2OS cells were added to the upper well of modified Boyden chamber (transwell) plates in serum-free medium containing 0.4% BSA with a vehicle or with either 7.5 μM of the Antp-AAC-11-LZ (377-399) peptide or the AAC-11-LZ (377-399) peptide and subjected to a transwell migration assay as described under Materials and methods. The cells were allowed to migrate toward 10% FBS for 24 h. Triplicate wells were used for each of three independent experiments. The results are expressed relative to the migration of the untreated cells (=100%). Column: Mean of three experiments. Bar: s.e. P-value was determined by Student's t-test (*P<0.01). (B) U2OS cells were seeded in a Matrigel-coated Boyden chamber in serum-free medium containing 0.4% BSA with a vehicle or with either 7.5 µM of the Antp-AAC-11-LZ (377-399) peptide or the AAC-11-LZ (377-399) peptide and subjected to a transwell migration assay as described under Materials and methods. The cells were allowed to migrate toward 10% FBS for 48 h. Triplicate wells were used for each of three independent experiments. The results are expressed relative to the migration of the untreated cells (=100%). Column: Mean of three experiments. Bar: s.e. P-value was determined by Student's t-test (*P<0.01) […]

Series [2] relates to A549 non-small cell lung cancer xenograft. The series is described as follows: A549 lung adenocarcinoma subcutaneous xenograft in nude mice. As to conditions: 5 mg/kg i.p., 7 daily injections. It is filed as in vivo. The protocol:
A549 cells (1.25×10^6) were injected subcutaneously to six weeks old female nu/nu mice. Following transplantation (n=5-6 per model) tumor growth was assessed by measuring tumor size in two dimension using a Vernier caliper. Tumor volume was calculated using the formula [3.14×long axis×short axis×short axis]/6 (Kjonniksen et al., 1989). Treatment started after randomisation when tumor volumes had reached a size of approximately 100 mm^3 and consisted of intraperitoneal injection of AAC-11-LZ (377-399) or Antp-AAC-11-LZ (377-399) peptides (5 mg/kg) or vehicle (normal saline solution) each day for 7 consecutive days. Mice were weighted and the tumor size was measured by a caliper and recorded daily. Twenty eight days after beginning of the treatment mice were sacrificed. The tumors, kidney, lungs, heart, liver, pancreas and spleen were taken and fixed. Paraffin-embedded sections were prepared and stained with hematoxylin and eosin for histological analysis.

Series [3] relates to U2OS cells. The series is described as follows: Transwell Boyden chamber migration assay, U2OS cells. It is filed as cell-based. Particulars: 7.5 μM, serum-free medium with 0.4% BSA, toward 10% FBS, 24 h, FIG. 10A. As to the method:
as §1

Series [4] is described as follows: Toxicity of peptide injection in nude mice. As to conditions: i.p. twice per week for 4 weeks.
Protocol: Nude mice were injected intraperitoneally twice a week for 4 weeks with normal saline solution or the indicated doses of Antp-AAC-11-LZ (363-399) peptide (n=3-4 mice per group) and were monitored daily for body weight (mean±s.e.m).
Nude mice were injected intraperitoneally twice a week for 4 weeks with normal saline solution or the indicated doses of Antp-AAC-11-LZ (377-399) peptide (n=3-4 mice per group) and were monitored daily for body weight (mean±s.e.m).
We first evaluated the toxicity of the Antp-AAC-11-LZ (363-399) peptide in nude mice that were injected intraperitoneally twice per week for 4 weeks with the Antp-AAC-11-LZ (363-399) peptide or normal saline solution (dose range: 0.8-4.8 mg peptide/kg body weight; n=3-4 mice per group).
We first evaluated the toxicity of the Antp-AAC-11-LZ (377-399) peptide in nude mice that were injected intraperitoneally twice per week for 4 weeks with the Antp-AAC-11-LZ (377-399) peptide or normal saline solution (dose range: 1-6 mg peptide/kg body weight; n=3-4 mice per group).
The test system of the next series is A549 cells. The series is described as follows: Cell viability (MTT) of A549 cells under low serum / serum deprivation. It is filed as cell-based. The protocol:
(A) Karpas 1106, SU-DHL-5, SeAx and HUT-78 cells were plated at a densities of 6×10^3 in 96 well plates (100 μL total volume per well) and treated for 24 hours in a 37° C. incubator (5% CO2) with increasing concentrations of the Antp-AAC-11-LZ (363-399). 20 μL MTS reagent was then added to each well and plates were incubated for an additional 4 hours. Absorbance was measured at 490 nm using a 96-well plate reader. The extent to which the Antp-AAC-11-LZ (363-399) peptide inhibited cell proliferation was calculated as a percentage of the absorbance in each well containing the Antp-AAC-11-LZ (363-399) peptide relative to wells containing no peptide (negative control). Each bar represents the mean±s.d. from at least three independent experiments. (B) Indicated cells were plated at a densities of 4.5×10^3 in 96 well plates (100 μL total volume per well) and allowed to attach overnight in a 37° C. incubator (5% CO2). Media was removed from cells and replaced with media containing Antp-AAC-11-LZ (363-399) peptide at various concentrations (100 μL total volume per well) peptide and the plates were incubated for 24 hours. The MTT assay was then completed and data analysis was performed as described herein. […] A549 cells were plated at a densities of 4.5×10^3 in 96 well plates (100 μL total volume per well) and allowed to attach overnight in a 37° C. incubator (5% CO2). Media was removed from cells and replaced with media containing the indicated peptides at 10 μM (100 μL total volume per well) and the plates were incubated for 24 hours. The MTT assay was then completed and data analysis was performed as described herein.
(A) A549 cells were plated at a densities of 4.5×10^3 in 96 well plates (100 μL total volume per well) and allowed to attach overnight in a 37° C. incubator (5% CO2). Media was removed from cells and replaced with media containing the indicated peptides at various concentrations (100 μL total volume per well) peptide in the absence of serum and the plates were incubated for 24 hours. The MTT assay was then completed and data analysis was performed as described herein. (B) A549 or HaCat cells were plated at a densities of 4.5×10^3 in 96 well plates (100 μL total volume per well) and allowed to attach overnight in a 37° C. incubator (5% CO2). Media was removed from cells and replaced with media containing the indicated peptides at 10 μM (100 μL total volume per well) peptide in the absence of serum and the plates were incubated for 24 hours. The MTT assay was then completed and data analysis was performed as described herein.
A549 cells were plated at a densities of 4.5×10^3 in 96 well plates (100 μL total volume per well) and allowed to attach overnight in a 37° C. incubator (5% CO2). Cells were left untreated or pre-treated with 100 μM Z-VAD-FMK for 2 h. […] The MTT assay was then completed and data analysis was performed as described herein.
(A) A549 cells were plated at a densities of 4.5×10^3 in 96 well plates (100 μL total volume per well) and allowed to attach overnight in a 37° C. incubator (5% CO2). Media was removed from cells and replaced with media containing the indicated Antp-AAC-11-LZ peptides at various concentrations (100 μL total volume per well) peptide and the plates were incubated for 24 hours. The MTT assay was then completed and data analysis was performed as described herein. (B) A549 or HaCat cells were plated at a densities of 4.5×10^3 in 96 well plates (100 μL total volume per well) and allowed to attach overnight in a 37° C. incubator (5% CO2). Media was removed from cells and replaced with media containing the indicated peptides at 10 μM (100 μL total volume per well) peptide in the absence of serum and the plates were incubated for 24 hours. The MTT assay was then completed and data analysis was performed as described herein.

As for “AAC-11-LZ (377-399): LQYFARGLQVYIRQLRLALQGKT (SEQ ID NO: 16) (Synthetic AAC-11-LZ (377-399))”, the cell invasion entry with U2OS cells [1] is recorded as “didn't show any effect”. For the same substance, the “final mean tumor volume relative to control-treated mice” value in series [2] (p=0.01) is reported as “less than 25%”. Also, the cell migration entry with U2OS cells [3] is reported as “didn't show any effect”.

Take “Ac-RQIKIWFKKQNRRMKWKKLQYFARGLQVYIRQLRLALQGKT-NH2 [Antp-AAC-11-LZ (377-399)]”: in the series on U2OS cells [1], the cell invasion entry is on record as “prevented invasion”. Also, the “tumor size versus AAC-11-LZ (377-399) peptide or vehicle” value in series [2] (FIG. 11B) is “significantly smaller tumors”. In series [4] (1-6 mg peptide/kg body weight), the mortality entry is listed as “No mice died”. Besides, in series [4] (1-6 mg peptide/kg body weight, FIG. 11A), the “body weight difference between groups” value was “no significant difference”. The “toxicity to kidney, lungs, heart, liver, pancreas and spleen” value in series [4] (1-6 mg peptide/kg, end of experiment) is on record as “no obvious toxicity”. Further, the cellular viability in the series with A549 cells (2 µM) is given as 5 % of control. Further, in the series on A549 cells (various concentrations, low-serum conditions, 24 hours, FIG. 2A / 5A), the “cytotoxicity (decrease of A549 viability) relative to comparison peptide, dose-response” value is on record as “markedly increased cytotoxicity potency compared to the parent peptide”. For the same substance, in the series on U2OS cells [3], the cell migration entry is on record as “substantially decreased”.
